According to ChEMBL document CHEMBL1201862, “PubChem BioAssay data set” (2004):
Calls of active or inactive are those of the source.

Tests used:
[1] = cytotoxicity toward NIH3T3 fibroblasts, dose response, counter-screen, cell-based, ATP luminescence, mouse fibroblasts (AID 2010); format: functional;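 note: cells exposed to compound for about 90 hours before reading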
[2] = inhibitors of intracellular T. cruzi replication, confirmation, NIH3T3 host cells, beta-gal luminescence (AID 2044); format: functional, cell-based;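 note: intracellular parasites grown in NIH/3T3 mouse fibroblasts as host cells; luminescent beta-galactosidase reporter signal from transgenic T. cruzi replicating inside host cells; inhibitors lower the luminescence signal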
Cytochrome P450 2C19 = Cytochrome P450 2C19 (Homo sapiens, UniProt P33261); experiment: Cytochrome panel assay with activity outcomes. Panel member name: p450-cyp2c19 Compounds with AC50 equal or less than 10 uM are considered active; format: functional
Chain of Cytochrome P450 2C19 (P33261 whole entry): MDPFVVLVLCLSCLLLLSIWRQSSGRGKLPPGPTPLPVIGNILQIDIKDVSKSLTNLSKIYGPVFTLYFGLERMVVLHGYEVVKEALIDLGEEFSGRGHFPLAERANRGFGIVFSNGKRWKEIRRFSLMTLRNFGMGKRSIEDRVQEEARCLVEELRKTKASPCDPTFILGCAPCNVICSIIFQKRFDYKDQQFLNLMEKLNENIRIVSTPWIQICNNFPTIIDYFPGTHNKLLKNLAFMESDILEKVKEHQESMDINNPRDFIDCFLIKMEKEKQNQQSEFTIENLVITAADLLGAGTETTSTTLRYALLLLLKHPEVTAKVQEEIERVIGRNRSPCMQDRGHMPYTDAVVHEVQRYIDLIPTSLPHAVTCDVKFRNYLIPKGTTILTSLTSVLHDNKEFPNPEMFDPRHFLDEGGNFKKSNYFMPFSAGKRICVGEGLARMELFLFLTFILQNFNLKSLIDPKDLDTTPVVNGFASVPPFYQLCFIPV

Cytochrome P450 1A2 = target: T1, Cytochrome P450 1A2 (Homo sapiens, UniProt P05177);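 note: PubChem cytochrome P450 panel assay, CYP1A2 panel member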
T1 sequence (P05177 whole entry): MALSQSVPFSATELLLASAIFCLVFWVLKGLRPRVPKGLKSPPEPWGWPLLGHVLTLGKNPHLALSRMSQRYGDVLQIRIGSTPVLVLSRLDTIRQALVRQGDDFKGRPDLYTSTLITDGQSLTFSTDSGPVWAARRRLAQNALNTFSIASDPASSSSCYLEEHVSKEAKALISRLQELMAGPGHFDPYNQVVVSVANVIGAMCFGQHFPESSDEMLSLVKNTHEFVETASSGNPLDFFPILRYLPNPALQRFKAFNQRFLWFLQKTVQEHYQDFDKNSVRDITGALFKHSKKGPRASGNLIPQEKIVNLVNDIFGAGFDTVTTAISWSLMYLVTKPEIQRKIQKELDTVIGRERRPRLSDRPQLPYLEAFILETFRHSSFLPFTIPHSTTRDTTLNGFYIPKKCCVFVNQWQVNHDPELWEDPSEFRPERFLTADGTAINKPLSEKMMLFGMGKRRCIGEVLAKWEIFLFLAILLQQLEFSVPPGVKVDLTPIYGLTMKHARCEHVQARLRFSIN

Cytochrome P450 2D6 = Cytochrome P450 2D6 (Homo sapiens, UniProt P10635);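 note: CYP2D6 member of a cytochrome P450 panel assay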
Chain of Cytochrome P450 2D6 (P10635 whole entry): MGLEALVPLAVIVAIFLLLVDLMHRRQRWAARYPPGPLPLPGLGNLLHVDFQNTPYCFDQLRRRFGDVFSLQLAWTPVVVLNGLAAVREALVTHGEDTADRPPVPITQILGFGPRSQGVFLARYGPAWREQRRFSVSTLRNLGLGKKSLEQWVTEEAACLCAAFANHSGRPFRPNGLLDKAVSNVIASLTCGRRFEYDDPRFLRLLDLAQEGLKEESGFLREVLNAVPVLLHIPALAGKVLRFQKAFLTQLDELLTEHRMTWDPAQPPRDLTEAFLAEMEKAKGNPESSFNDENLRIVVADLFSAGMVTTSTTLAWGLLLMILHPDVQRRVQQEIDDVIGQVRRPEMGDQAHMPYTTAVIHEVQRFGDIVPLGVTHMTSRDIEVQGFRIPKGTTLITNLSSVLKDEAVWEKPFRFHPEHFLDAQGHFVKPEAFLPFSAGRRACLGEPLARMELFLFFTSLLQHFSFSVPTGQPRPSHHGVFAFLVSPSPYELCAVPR

Protein RecA = target: T2, Protein RecA (Mycobacterium tuberculosis, UniProt P9WHJ3); experiment: Fluorescence Cell-Free Homogeneous Dose Retest to Identify Inhibitors of RecA-Intein Splicing Activity. [Related pubchem assays (depositor defined):AID2097, AID2223, AID489010, AID492950]; format: functional
T2 sequence (P9WHJ3 whole entry): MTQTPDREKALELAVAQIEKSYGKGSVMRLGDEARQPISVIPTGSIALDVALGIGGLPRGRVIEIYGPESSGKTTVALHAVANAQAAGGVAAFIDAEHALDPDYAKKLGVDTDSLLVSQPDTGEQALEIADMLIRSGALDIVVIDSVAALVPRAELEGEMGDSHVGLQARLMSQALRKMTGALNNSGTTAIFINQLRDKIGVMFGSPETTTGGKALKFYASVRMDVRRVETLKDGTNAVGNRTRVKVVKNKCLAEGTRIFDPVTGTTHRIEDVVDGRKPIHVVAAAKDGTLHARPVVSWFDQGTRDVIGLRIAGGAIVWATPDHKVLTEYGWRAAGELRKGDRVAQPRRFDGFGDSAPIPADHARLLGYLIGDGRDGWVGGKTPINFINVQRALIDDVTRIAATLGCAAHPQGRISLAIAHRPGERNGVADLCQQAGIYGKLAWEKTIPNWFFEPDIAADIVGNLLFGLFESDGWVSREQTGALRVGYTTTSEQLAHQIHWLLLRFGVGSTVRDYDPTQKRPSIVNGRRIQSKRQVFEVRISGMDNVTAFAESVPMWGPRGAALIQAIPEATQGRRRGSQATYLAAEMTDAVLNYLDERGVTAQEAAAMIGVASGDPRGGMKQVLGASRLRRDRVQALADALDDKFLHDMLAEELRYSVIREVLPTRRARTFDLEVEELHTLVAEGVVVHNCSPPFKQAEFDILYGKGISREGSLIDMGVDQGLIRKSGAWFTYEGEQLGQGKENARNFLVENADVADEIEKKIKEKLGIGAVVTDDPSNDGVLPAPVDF

H4 = experiment: Luminescence Cell-Based Dose Response HTS to Identify Activators of 5'UTR Stem-Loop Driven Prion Protein mRNA Translation in H4 Neuroglioblastoma Cells. [Related pubchem assays: 1829 (Project Summary), 1814 (Primary HTS)]; format: functional; details: Homo sapiens
[3] = Luminescence Cell-Based Dose Response HTS to Identify Activators of Luciferase Translation or Activity in H4 […] Cells. [Related pubchem assays: 1829 (Project Summary), 1814 (Primary HTS)]; format: functional
[4] = system: Streptococcus sp. 'group A'; experiment: growth inhibition of control SK(-) GAS strain, dose response, counter-screen for streptokinase expression inhibitor project, luminescence, kanamycin, BacTiterGlo, confirmation (AID 1900); format: functional, organism-based
Streptokinase A = target: T3, Streptokinase A (Streptococcus pyogenes serotype M1, UniProt P10520); experiment: S. pyogenes streptokinase expression inhibitors, potency, dose response, plasminogen activation absorbance, OD405 (AID 1914); format: functional, Streptococcus pyogenes M1 GAS;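 note: secreted streptokinase activity via plasminogen activation per viability signal from cell pellet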
T3 sequence (P10520 whole entry): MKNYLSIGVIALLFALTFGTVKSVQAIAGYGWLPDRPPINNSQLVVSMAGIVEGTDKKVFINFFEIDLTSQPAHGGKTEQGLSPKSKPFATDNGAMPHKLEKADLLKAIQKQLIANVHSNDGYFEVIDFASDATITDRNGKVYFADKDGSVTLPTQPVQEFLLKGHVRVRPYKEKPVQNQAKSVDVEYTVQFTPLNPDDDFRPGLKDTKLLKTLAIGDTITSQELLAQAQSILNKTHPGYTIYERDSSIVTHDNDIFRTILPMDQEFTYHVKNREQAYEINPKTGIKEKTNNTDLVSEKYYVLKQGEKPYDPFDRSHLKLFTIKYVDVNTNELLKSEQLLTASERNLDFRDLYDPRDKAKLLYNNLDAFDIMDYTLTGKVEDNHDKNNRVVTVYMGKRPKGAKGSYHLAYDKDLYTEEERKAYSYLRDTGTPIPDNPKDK

Streptococcus = experiment: Group A Streptococcus viability loss, dose response, counter-screen for streptokinase expression inhibitor project, luminescence, BacTiterGlo (AID 1915); format: functional, organism-based;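 note: potency for reduction of bacterial viability or growth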
Cytochrome P450 3A4 = Cytochrome P450 3A4 (Homo sapiens, UniProt P08684);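 note: CYP3A4 tested as one member of a cytochrome P450 panel screen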
Chain of Cytochrome P450 3A4 (P08684 whole entry): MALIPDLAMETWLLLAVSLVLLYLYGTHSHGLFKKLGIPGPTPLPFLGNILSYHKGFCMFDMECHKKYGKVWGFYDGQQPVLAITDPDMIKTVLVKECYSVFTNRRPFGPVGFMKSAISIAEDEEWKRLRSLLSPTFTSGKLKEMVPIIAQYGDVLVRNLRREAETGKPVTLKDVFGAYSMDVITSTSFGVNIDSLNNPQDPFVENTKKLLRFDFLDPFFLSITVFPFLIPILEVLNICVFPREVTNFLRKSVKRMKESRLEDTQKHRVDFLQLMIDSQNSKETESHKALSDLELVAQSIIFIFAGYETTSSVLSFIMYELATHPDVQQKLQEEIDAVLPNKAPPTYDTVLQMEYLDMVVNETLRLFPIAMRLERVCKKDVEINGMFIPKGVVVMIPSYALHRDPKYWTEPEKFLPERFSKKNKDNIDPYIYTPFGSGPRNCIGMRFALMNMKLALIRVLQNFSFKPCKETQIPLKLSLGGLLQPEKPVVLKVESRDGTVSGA

## Cc1nn2c(O)c3c(nc2c1-c1ccc(F)cc1)CCCC3
[1]
  EC50: 10.1 µM (active)
[2]
  EC50: 0.451 µM (active)

## COCCn1c(=O)c(C)nc2cnc(Oc3cccc(Cl)c3)nc21
Cytochrome P450 2C19; read-out: AC50
  AC50: 20 µM (inconclusive)

## N[C@H](Cc1ccc(Cl)cc1)C(=O)O
Cytochrome P450 1A2
  AC50: 2 µM (inconclusive)

## O=C(/C=C\c1ccccc1)c1ccccc1O
Cytochrome P450 2C19; read-out: AC50
  AC50: 3.98 µM (inconclusive)

## Cc1ccccc1-c1nc(NCc2cccnc2)c2ccccc2n1
Cytochrome P450 2D6
  AC50: 39.8 µM (inconclusive)
Cytochrome P450 2C19; read-out: AC50
  AC50: 15.8 µM (inconclusive)

## CCO/C=C1/C(=O)N(Cc2ccccc2)C(=O)c2ccccc21
Protein RecA
  EC50: > 380 µM (inactive)

## O=C1[C@H]2[C@@H](c3ccc(Cl)cc3)N3C(=O)N(c4cccc(Br)c4)C(=O)[C@@]3(Cc3ccc(Cl)cc3)[C@H]2C(=O)N1C1CCCCC1
[1]
  EC50: > 60 µM (not active)
[2]
  EC50: 1.24 µM (active)

## Cn1c(=O)c2nc(CCCCC(=O)O)[nH]c2n(C)c1=O
Cytochrome P450 1A2
  AC50: 0.794 µM (inconclusive)
Cytochrome P450 2C19
  AC50: inconclusive

## CC1=CC(=O)C2=C(C)C[C@@H](O)[C@@H]3[C@@H](OC(=O)[C@H]3C)[C@H]12
Cytochrome P450 1A2
  AC50: 25.1 µM (inconclusive)

## Cc1cccc(C(=O)OC(C)CN2CCN(C)CC2)c1 (stereo not drawn)
[1]
  EC50: > 30 µM (not active)
[2]
  EC50: 0.994 µM (active)

## O=C(Nc1nnc(C2CC2)s1)c1cc(S(=O)(=O)N2CCN(c3ccccc3)CC2)ccc1Cl
Cytochrome P450 1A2
  AC50: 11.2 µM (inconclusive)

## O=C(Nc1cc(S(=O)(=O)N2CCOCC2)ccc1-n1cncn1)c1ccc(Cl)cc1
[1]
  EC50: > 60 µM (not active)
[2]
  EC50: 2.54 µM (active)

## COc1ccc2c(c1)C1=NN(/C(C)=C\C(C)=O)C(c3ccccc3)C1CC2 (stereo not drawn)
H4
  EC50: 7.74 µM (active)
[3]
  EC50: 24.7 µM (active)

## COc1ccc(/C=C/C(=O)c2c(C)nc3ccccn23)cc1
H4
  EC50: > 120 µM (not active)
[3]
  EC50: 0.225 µM (active)

## O=S(=O)(c1ccc(F)cc1)c1nc(-c2ccccc2)oc1N1CCOCC1
[4]
  EC50: > 150 µM (not active)
Streptokinase A
  EC50: > 150 µM (not active)
Streptococcus
  EC50: > 150 µM (not active)

## O=C(/C=C/c1c(F)cccc1Cl)Nc1ncccn1
H4
  EC50: 7.88 µM (active)
[3]
  EC50: 0.974 µM (active)

## COc1ccc(-n2nc([N+](=O)[O-])c(NCCc3ccc(Cl)cc3)[n+]2[O-])cc1
[1]
  EC50: > 60 µM (not active)
[2]
  EC50: 0.602 µM (active)

## COc1ccccc1CN1CCN(Cc2ccc(Cl)cc2)CC1
[1]
  EC50: > 60 µM (not active)
[2]
  EC50: 0.439 µM (active)

## COc1ccc(-n2c(=O)c(C)nc3cnc(OC)nc32)cc1
Cytochrome P450 2C19; read-out: AC50
  AC50: 39.8 µM (inconclusive)
Cytochrome P450 3A4
  AC50: 25.1 µM (inconclusive)

## CC1(C)CC(c2nc(-c3ccc(Cl)cc3)cs2)CCS1 (stereo not drawn)
[4]
  EC50: 9.13 µM (active)
Streptokinase A
  EC50: 13.9 µM (active)
Streptococcus
  EC50: > 150 µM (not active)

## COc1ccc([N+](=O)[O-])cc1NC(=S)NC(NC(=O)C(c1ccccc1)c1ccccc1)C(Cl)(Cl)Cl (stereo not drawn)
Streptokinase A
  EC50: > 150 µM (not active)

## CN(C)c1ccc(-c2nc(NCc3cccnc3)c3ccccc3n2)cc1
Cytochrome P450 2C19; read-out: AC50
  AC50: 10 µM (inconclusive)

## CCOc1ccc2nc(N(CCN(CC)CC)C(=O)c3ccc([N+](=O)[O-])cc3)sc2c1
[1]
  EC50: > 60 µM (not active)
[2]
  EC50: 0.184 µM (active)

## O=C(c1cccc(F)c1)N1CCC2(CCCN(c3cccc(-c4ccccc4)c3)C2)CC1
Cytochrome P450 1A2
  AC50: 15.8 µM (inconclusive)

## CS(=O)(=O)N1CCC2(CCCN(C(c3ccccc3)c3ccccc3)C2)CC1
Cytochrome P450 2C19; read-out: AC50
  AC50: 20 µM (inconclusive)

## COc1ccccc1NC(=O)C1=C(C)Nc2nc(-c3ccc(N(C)C)cc3)nn2C1c1ccncc1 (stereo not drawn)
Cytochrome P450 1A2
  AC50: 12.6 µM (inconclusive)

## CCOC(=O)c1nnn(-c2nonc2-n2cccc2)c1CN1CCC(C)CC1
[4]
  EC50: 9.92 µM (active)
Streptokinase A
  EC50: 14.9 µM (active)
Streptococcus
  EC50: > 150 µM (not active)

## O=C(c1cnc(N2CCN(c3ncccn3)CC2)c2ccccc12)N1CCN(c2ncccn2)CC1
Cytochrome P450 2D6
  AC50: 11.2 µM (inconclusive)
Cytochrome P450 3A4
  AC50: 39.8 µM (inconclusive)

## Cc1ccc(C(CC(=O)c2ccco2)SCCO)cc1 (stereo not drawn)
Cytochrome P450 1A2
  AC50: 25.1 µM (inconclusive)

## O=S(=O)(NCC(c1cccnc1)N1CCN(c2ccccc2)CC1)c1cc(F)ccc1F (stereo not drawn)
[1]
  EC50: > 60 µM (not active)
[2]
  EC50: 0.508 µM (active)

## CCOc1ccc(NC(=O)CSc2nnc(Cc3ccccc3)c(=O)n2N)cc1
[4]
  EC50: > 150 µM (not active)
Streptokinase A
  EC50: > 150 µM (not active)
Streptococcus
  EC50: > 150 µM (not active)

## Cc1ccc(CCN2CC(C(=O)NCCN3CCCCCC3)CC2=O)cc1 (stereo not drawn)
Cytochrome P450 2D6
  AC50: 20 µM (inconclusive)
Cytochrome P450 2C19
  AC50: inconclusive
Cytochrome P450 3A4
  AC50: 35.5 µM (inconclusive)

## CCn1c(C(=O)NCc2cccnc2)cc2sc(Cl)cc21
[1]
  EC50: > 60 µM (not active)
[2]
  EC50: 1.12 µM (active)

## O=C(/C=C/c1ccccc1)N/C(=C/c1ccccc1)C(=O)Nc1ccccc1O
Cytochrome P450 2D6
  AC50: 22.4 µM (inconclusive)
Cytochrome P450 2C19; read-out: AC50
  AC50: 17.8 µM (inconclusive)

## CC(C)(C)c1cc2cccnc2n1Cc1cccc(F)c1
Cytochrome P450 1A2
  AC50: 12.6 µM (inconclusive)
Cytochrome P450 2C19; read-out: AC50
  AC50: 11.2 µM (inconclusive)
Cytochrome P450 3A4
  AC50: 15.8 µM (inconclusive)

## COc1cccc(Nc2c3c(nc4c(-c5ccccc5)c(C)nn24)CCC3)c1
[4]
  EC50: 15 µM (active)
Streptokinase A
  EC50: 8.91 µM (active)
Streptococcus
  EC50: > 150 µM (not active)

## Cc1ccc(Sc2nc(C)cc(C)c2S(C)(=O)=O)cc1
Cytochrome P450 2D6
  AC50: 17.8 µM (inconclusive)
Cytochrome P450 3A4
  AC50: 14.1 µM (inconclusive)

## Cc1ccc2[nH]c(SCC(=O)Nc3nnc(SCC(N)=O)s3)nc2c1
Cytochrome P450 2C19; read-out: AC50
  AC50: 22.4 µM (inconclusive)
Cytochrome P450 3A4
  AC50: 22.4 µM (inconclusive)

## CCCSc1nc(C)cc(C)c1C(N)=O
Cytochrome P450 1A2
  AC50: 28.2 µM (inconclusive)

## O=S(=O)(O)c1ccc(O)c2ncccc12
Cytochrome P450 1A2
  AC50: 0.631 µM (inconclusive)

## O=C(O)CCC(=O)N1CCC[C@H]1C(=O)O
Cytochrome P450 2C19
  AC50: inconclusive

## O=[N+]([O-])c1cc(/C=N/O)ccc1SCc1ccccc1
Cytochrome P450 2C19; read-out: AC50
  AC50: 6.31 µM (inconclusive)
Cytochrome P450 3A4
  AC50: 11.2 µM (inconclusive)

## COc1ccc2c(c1)N(C[C@@H](C)CN(C)C)c1ccccc1S2 [DEXTROMEPROMAZINE]
Cytochrome P450 1A2
  AC50: 15.8 µM (inconclusive)
Cytochrome P450 3A4
  AC50: 7.94 µM (inconclusive)
